In brackets after ≈: the same amount, converted by molar mass. Read-outs that look alike come from different tables or passages of the source.
Assays:
[1] = C57BL/6, mouse, 100 μg mL^−1, pH 7.4
[2] = drug passed through and remained inside the excised skin; cited from earlier work
[3] = test system: Gram-negative E. coli K12; experiment: Minimum inhibitory concentration (MIC); type: cell-based; settings: Escherichia coli
[4] = Skin permeation, static Franz diffusion cell, passive and electrothermally activated patch; settings: stock solution 100 μg mL^−1 for loading, mouse skin
blood glucose level = experiment: In vivo blood glucose level after insulin injection or insulin-loaded electrothermal patch; settings: IP or subcutaneous injection of insulin (0.032 UI, 1.12 μg), C57BL/6 mice
[5] = electrothermal activation 1 V, 10 min

Active, amount of drug permeated [1] [µg/mL]	Flux passive [1] [μg cm^−2 h^−1]	Passive, amount of drug permeated [1] [µg/mL]	Flux active [1] [μg cm^−2 h^−1]	Molecule	other results
23.1	0	0		O=c1[nH]cc(F)c(=O)[nH]1 [5-fluorouracil]	Flux of 5-fluorouracil reported by Xie et al. [2]: 1.64 μg cm^−2 h^−1
				CC1(C)S[C@@H]2[C@H](NC(=O)[C@H](N)c3ccccc3)C(=O)N2[C@H]1C(=O)O [ampicillin]	MIC [3]: 10 ± 0.5 µg/mL (≈ 28.6 µM)
				CO/N=C(\C(=O)N[C@@H]1C(=O)N2C(C(=O)[O-])=C(C[N+]3(C)CCCC3)CS[C@H]12)c1csc(N)n1 [cefepime]	MIC [3]: 10 ± 0.5 µg/mL (≈ 20.8 µM); Active, amount of drug permeated [4, 5]: 18.3 µg/mL; Flux active [4, 5]: 4.67 μg cm^−2 h^−1; Flux passive ([4]; passive, no activation): 0 μg cm^−2 h^−1; Passive, amount of drug permeated ([4]; passive, no activation): 0 µg/mL
62	0	0	6.61	COc1cccc2c1C(=O)c1c(O)c3c(c(O)c1C2=O)C[C@@](O)(C(=O)CO)C[C@@H]3O[C@H]1C[C@H](N)[C@H](O)[C@H](C)O1 [doxorubicin]	
			4.68	CN(C)C(=N)N=C(N)N [metformin]	
				insulin	Time to therapeutic effect (change in blood glucose level) (blood glucose level): about 15 min

Molecule	Active, amount of drug permeated [1] [µg/mL]	Flux passive [1] [μg cm^−2 h^−1]	Passive, amount of drug permeated [1] [µg/mL]	Flux active [1] [μg cm^−2 h^−1]	other results
Cn1c(=O)c2c(ncn2C)n(C)c1=O [caffeine]	58	7.18	28	15.09	

From patent US20220193384A1, “CUTANEOUS DEVICE FOR STORING AND RELEASING MOLECULES, AND CORRESPONDING METHOD” (priority 2019, published 2022)
